Data reported in patent publication US9457008B2, “Joint product comprising synephrine and topiramate” (Institute of Pharmacology and Toxicology Academy of …, priority 2012, dated 2016).

Assay: Effects of different dissolution media on release rate of sustained-release pellet of topiramate
Type: physicochemical
Settings: 0.1 mol/L HCl (pH1.2), 37° C.
Description: In order to verify whether acidic, basic solvent media would influence the release rate of the sustained-release pellets of the present invention, 0.1 mol/L HCl (pH1.2) was prepared as artificial gastric fluid, […] phosphate buffer (pH6.8) was prepared as artificial intestinal fluid, and these media and water (500 ml) were used as release media, rotation speed was 100 rpm, 37° C. Samples (5 ml, supplemented with equivalent volume of media at the meantime) were taken at 1, 2, 4, 8, 12, 16, 20, 24 h, filtrated, and the subsequent filtrates were used as test solutions. High performance liquid chromatography (Appendix V D, Part II of Chinese Pharmacopoeia, 2010 Edition) was used, octylsilane-bonded silica gel was used as packing agent, 50% methanol was mobile phase, differential refractive detector was used, flow rate was 1.5 ml per minute. 200 μl of test solution was taken, injected in liquid chromatograph, the peak area of topiramate as main drug was recorded; topiramate was separately taken as control sample and measured by the same method, and accumulative release percentages of drug at different time points were calculated by external standard method. The release profile of sample of Batch 1 in Example 16 (2) in the above media were drawn, and the results were shown in FIG. 4.

## CC1(C)O[C@@H]2[C@@H](CO[C@@]3(COS(N)(=O)=O)OC(C)(C)O[C@@H]23)O1 [topiramate, 2,3,4,5-bis-O-(1-methylethylene)-β-D-fructopyranose sulfamate]
  stability in pH1.2 artificial gastric fluid: unstable
